The target of the assay is T1, MINPP1 (Homo sapiens, UniProt Q9UNW1).
T1 construct: recombinant, expressed in and purified from E. coli; borders and tags only in the supplement
T1 sequence (Q9UNW1 31-487): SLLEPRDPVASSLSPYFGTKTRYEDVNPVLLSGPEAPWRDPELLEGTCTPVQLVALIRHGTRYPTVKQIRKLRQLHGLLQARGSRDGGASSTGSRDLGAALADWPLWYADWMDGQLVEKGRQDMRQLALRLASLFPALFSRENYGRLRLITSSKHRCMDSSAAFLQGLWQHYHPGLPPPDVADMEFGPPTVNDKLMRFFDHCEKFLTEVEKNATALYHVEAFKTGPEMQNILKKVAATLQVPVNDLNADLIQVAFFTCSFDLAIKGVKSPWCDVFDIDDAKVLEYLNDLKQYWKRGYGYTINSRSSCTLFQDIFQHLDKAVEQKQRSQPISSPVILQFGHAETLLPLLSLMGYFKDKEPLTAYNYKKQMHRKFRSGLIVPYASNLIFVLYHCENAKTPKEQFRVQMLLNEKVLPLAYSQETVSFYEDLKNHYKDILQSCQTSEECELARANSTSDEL
As to the kind of experiment: 2D NMR of dephosphorylation of [[…]6]InsP5[2OH]. The class given is biochemical. The settings on record: read-out: apparent IC50.

One may read the IC50 as the concentration needed to halve the response being measured.

Regarding `O=P(O)(O)O[C@H]1[C@H](OP(=O)(O)O)[C@@H](OP(=O)(O)O)[C@H](OP(=O)(O)O)[C@@H](OP(=O)(O)O)[C@H]1OP(=O)(O)O` [InsP6], the IC50 is 2 µM.
